Measured values published in patent US8901118B2, “Compounds and methods for kinase modulation, and indications therefor” (Plexxikon Inc., priority 2010, dated 2014).

Biological target: T1, Flt-3 kinase (Homo sapiens, UniProt P36888)
T1 sequence (P36888 27-993): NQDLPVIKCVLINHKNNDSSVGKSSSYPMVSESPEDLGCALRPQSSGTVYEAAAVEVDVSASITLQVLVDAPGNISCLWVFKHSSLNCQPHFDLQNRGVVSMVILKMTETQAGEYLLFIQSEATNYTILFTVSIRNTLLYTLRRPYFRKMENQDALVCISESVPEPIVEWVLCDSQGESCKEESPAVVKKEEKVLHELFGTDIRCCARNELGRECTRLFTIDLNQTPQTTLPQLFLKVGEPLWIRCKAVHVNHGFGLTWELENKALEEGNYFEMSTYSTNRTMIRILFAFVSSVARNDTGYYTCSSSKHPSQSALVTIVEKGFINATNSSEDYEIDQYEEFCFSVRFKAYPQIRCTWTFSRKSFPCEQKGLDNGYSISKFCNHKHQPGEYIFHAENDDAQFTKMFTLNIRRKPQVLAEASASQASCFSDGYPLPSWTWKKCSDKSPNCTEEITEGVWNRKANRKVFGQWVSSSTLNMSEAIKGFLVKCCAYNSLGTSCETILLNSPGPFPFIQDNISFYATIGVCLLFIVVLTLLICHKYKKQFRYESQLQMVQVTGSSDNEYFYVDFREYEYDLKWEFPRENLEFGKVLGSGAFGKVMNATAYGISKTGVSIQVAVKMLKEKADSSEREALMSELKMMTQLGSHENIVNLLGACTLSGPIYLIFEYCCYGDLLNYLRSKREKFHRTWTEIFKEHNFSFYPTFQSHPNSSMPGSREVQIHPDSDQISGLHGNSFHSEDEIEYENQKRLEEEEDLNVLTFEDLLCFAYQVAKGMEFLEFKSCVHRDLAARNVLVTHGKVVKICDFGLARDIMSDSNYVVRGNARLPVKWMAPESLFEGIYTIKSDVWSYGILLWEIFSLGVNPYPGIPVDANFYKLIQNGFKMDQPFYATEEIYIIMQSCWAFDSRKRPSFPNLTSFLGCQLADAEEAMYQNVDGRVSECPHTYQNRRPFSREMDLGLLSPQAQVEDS
Experiment: Flt-3 kinase biochemical activity assay (AlphaScreen)
Conditions: 100 μM ATP; read-out: Biochemical Inhibition IC50 Flt3
Protocol: In one assay the biochemical activity IC50 values are determined with respect to inhibition of Flt-3 kinase activity, where inhibition of phosphorylation of a peptide substrate is measured as a function of compound concentration. Compounds to be tested, dissolved in DMSO (1 μL), are added to a white 384-well plate (Costar #3705). Working stocks of Flt-3 kinase (Invitrogen), biotin-(E4Y)10 substrate (Upstate Biotech, Cat#12-440), and ATP (Sigma, Cat#A-3377) are prepared in 25 mM Hepes pH 7.5, 5 mM MgCl2, 5 mM MnCl2, 1 mM DTT, and 0.01% Tween-20. All components are added to the 384-well plate for a final concentration of 1 ng/well Flt-3, 30 nM biotin-(E4Y)10 and 100 μM ATP in a volume of 20 μL. Each sample is at 5% DMSO. The plate is then incubated for 1 hour at room temperature. Just before use, working stocks of donor and acceptor beads from the AlphaScreen PY20 Detection Kit (PerkinElmer, Cat#676601M) are prepared in 25 mM Hepes pH 7.5, pH 7.4, 100 mM EDTA. 0.3% BSA. To stop the reaction, the plate is uncovered in the dark and 5 μL of Donor Beads solution (Streptavidin beads) is added to each well. The plate is incubated at room temperature for 20 minutes. Five microliters of Acceptor Beads solution (PY20 coated beads) are then added to each well. The final concentration of each bead is 10 μg/mL. The plates are incubated at room temperature for 60 minutes. Fluorescence signal is recorded on the Envision reader. Phosphorylated substrate results in binding of the PY20 antibody and association of the donor and acceptor beads such that signal correlates with kinase activity. The signal vs. compound concentration is used to determine the IC50.

| IC50 [µM] | Compound |
| --- | --- |
| < 0.1 | Cc1cnc2[nH]cc(Cc3cnc(Nc4ccc(F)cc4)nc3)c2c1 [Compound P-3010, (4-Fluoro-phenyl)-[5-(5-methyl-1H-pyrrolo[2,3-b]pyridin-3-ylmethyl)-pyrimidin-2-yl]-amine] |
| < 0.01 | Clc1ccc(Nc2ncc(Cc3c[nH]c4ncc(Cl)cc34)cn2)cc1 [Compound P-3011, (4-Chloro-phenyl)-[5-(5-chloro-1H-pyrrolo[2,3-b]pyridin-3-ylmethyl)-pyrimidin-2-yl]-amine] |
| < 0.1 | Fc1ccc(Nc2ncc(Cc3c[nH]c4ncc(Cl)cc34)cn2)cc1 [Compound P-3012, [5-(5-Chloro-1H-pyrrolo[2,3-b]pyridin-3-ylmethyl)-pyrimidin-2-yl]-(4-fluoro-phenyl)-amine] |
| > 1 | Fc1nc(NC2CCC(F)(F)CC2)ccc1Cc1c[nH]c2ncc(Cl)cc12 [Compound P-3013, [5-(5-Chloro-1H-pyrrolo[2,3-b]pyridin-3-ylmethyl)-6-fluoro-pyridin-2-yl]-(4,4-difluoro-cyclohexyl)-amine] |
| < 1 | Fc1ccccc1Nc1ncc(Cc2c[nH]c3ncc(Cl)cc23)cn1 [Compound P-3014, [5-(5-Chloro-1H-pyrrolo[2,3-b]pyridin-3-ylmethyl)-pyrimidin-2-yl]-(2-fluoro-phenyl)-amine] |
| < 0.1 | Clc1cnc2[nH]cc(Cc3cnc(Nc4ccccc4Cl)nc3)c2c1 [Compound P-3015, (2-Chloro-phenyl)-[5-(5-chloro-1H-pyrrolo[2,3-b]pyridin-3-ylmethyl)-pyrimidin-2-yl]-amine] |
